Measured values published in PubChem BioAssay AID220 (DTP/NCI, 2004).
Several values for one entry are separate records, joined by “and”; a condition that tells them apart may be missing. Equal entries are not always repeated. Results filed as inconclusive are left out.

Tested on: CD8F1 mice, subcutaneous mammary adenocarcinoma, T/C%
Test: NCI In Vivo Anticancer Drug Screen. Data for tumor model Mammary Adenocarcinoma CD8F1 (subcutaneous) in CD8F1
Details: higher = larger tumour
Protocol: The antitumor activity of compounds was measured in mice bearing transplantable tumors. Survival or tumor size were measured and the results are expressed as the measurement made in the treated group (T) divided by the measurement made in the vehicle treated control group (C). The tumor model used in this assay is Mammary Adenocarcinoma CD8F1 (subcutaneous) in CD8F1

[1] = endpoint: median tumor weight (est.), dose: 100.0 mg/kg/injection, schedule: Q07DX005 (ip), vehicle: saline
[2] = endpoint: median tumor weight (est.), dose: 12.5 mg/kg/injection, schedule: Q07DX005 (ip), vehicle: saline with Tween-80
[3] = endpoint: median tumor weight (est.), dose: 25.0 mg/kg/injection, schedule: Q07DX005 (ip), vehicle: saline with Tween-80
[4] = endpoint: median tumor weight (est.), dose: 100.0 mg/kg/injection, schedule: Q07DX005 (ip), vehicle: saline with Tween-80
[5] = endpoint: median tumor weight (est.), dose: 200.0 mg/kg/injection, schedule: Q07DX005 (ip), vehicle: saline with Tween-80
[6] = endpoint: median tumor weight change, dose: 125.0 mg/kg/injection, schedule: Q01DX001 (ip), vehicle: saline with Tween-80
[7] = endpoint: median tumor weight change, dose: 250.0 mg/kg/injection, schedule: Q01DX001 (ip), vehicle: saline with Tween-80
[8] = endpoint: median tumor weight change, dose: 500.0 mg/kg/injection, schedule: Q01DX001 (ip), vehicle: saline with Tween-80

CCC(/C=C/C1OC(=O)C=CC1C)=C\C(C)C/C=C/C(C)=C/C(C)C(=O)C(C)C(O)C(C)C/C(C)=C/C(=O)O (stereo unspecified)
T/C (endpoint: median tumor weight change, dose: 200.0 mg/kg/injection, schedule: Q01DX001 (ip), vehicle: saline + alcohol): 56 % of control
T/C (endpoint: median tumor weight change, dose: 400.0 mg/kg/injection, schedule: Q01DX001 (ip), vehicle: saline + alcohol): 49 % of control
T/C (endpoint: median tumor weight change, dose: 800.0 mg/kg/injection, schedule: Q01DX001 (ip), vehicle: saline + alcohol): 56 % of control
T/C (endpoint: median tumor weight change, dose: 1600.0 mg/kg/injection, schedule: Q01DX001 (ip), vehicle: saline + alcohol): 75 % of control
T/C (endpoint: median tumor weight change, dose: 3200.0 mg/kg/injection, schedule: Q01DX001 (ip), vehicle: saline + alcohol): 61 % of control

CNc1nc(N(C)C)nc(N(C)C)n1
T/C (endpoint: median tumor weight (est.), dose: 3.12 mg/kg/injection, schedule: Q07DX005 (ip), vehicle: saline): 89 % of control
T/C (endpoint: median tumor weight (est.), dose: 6.25 mg/kg/injection, schedule: Q07DX005 (ip), vehicle: saline): 111 % of control
T/C (endpoint: median tumor weight (est.), dose: 12.5 mg/kg/injection, schedule: Q07DX005 (ip), vehicle: saline): 75 % of control
T/C (endpoint: median tumor weight (est.), dose: 12.5 mg/kg/injection, schedule: Q07DX005 (ip), vehicle: water): 65 % of control
T/C (endpoint: median tumor weight (est.), dose: 25.0 mg/kg/injection, schedule: Q07DX005 (ip), vehicle: saline): 108 % of control
T/C (endpoint: median tumor weight (est.), dose: 25.0 mg/kg/injection, schedule: Q07DX005 (ip), vehicle: water): 94 % of control
T/C (endpoint: median tumor weight (est.), dose: 50.0 mg/kg/injection, schedule: Q07DX005 (ip), vehicle: saline): 63 % of control
T/C (endpoint: median tumor weight (est.), dose: 50.0 mg/kg/injection, schedule: Q07DX005 (ip), vehicle: water): 13 % of control
T/C (endpoint: median tumor weight (est.), dose: 74.0 mg/kg/injection, schedule: Q07DX005 (ip), vehicle: other): 33 % of control
T/C [1]: 48 % of control
T/C (endpoint: median tumor weight (est.), dose: 100.0 mg/kg/injection, schedule: Q07DX005 (ip), vehicle: water): 28 % of control
T/C (endpoint: median tumor weight (est.), dose: 148.0 mg/kg/injection, schedule: Q07DX005 (ip), vehicle: other): 47 % of control
T/C (endpoint: median tumor weight (est.), dose: 222.0 mg/kg/injection, schedule: Q07DX005 (ip), vehicle: other): 7 % of control

C[CH2][Pb]([CH2]C)([CH2]C)[O]C(=O)COc1ccccc1
T/C (endpoint: mean tumor weight, dose: 0.75 mg/kg/injection, schedule: Q01DX009 (ip), vehicle: saline): 112 % of control
T/C (endpoint: mean tumor weight, dose: 0.75 mg/kg/injection, schedule: Q07DX009 (ip), vehicle: saline): 398 % of control
T/C (endpoint: mean tumor weight, dose: 1.5 mg/kg/injection, schedule: Q01DX009 (ip), vehicle: saline): 57 % of control
T/C (endpoint: mean tumor weight, dose: 1.5 mg/kg/injection, schedule: Q07DX009 (ip), vehicle: saline): 192 % of control
T/C (endpoint: mean tumor weight, dose: 3.0 mg/kg/injection, schedule: Q01DX009 (ip), vehicle: saline): 73 % of control
T/C (endpoint: mean tumor weight, dose: 3.0 mg/kg/injection, schedule: Q07DX009 (ip), vehicle: saline): 172 % of control
T/C (endpoint: mean tumor weight, dose: 6.0 mg/kg/injection, schedule: Q07DX009 (ip), vehicle: saline): 165 % of control

O=c1cc(-c2ccccc2)[nH]c2c1CCCC2
T/C (endpoint: median tumor weight change, dose: 1000.0 mg/kg/injection, schedule: Q01DX001 (ip), vehicle: saline with Tween-80): 78 % of control

COc1ccc2ccccc2c1C1NC(=O)c2ccccc2N1 (stereo unspecified)
T/C (endpoint: median tumor weight change, dose: 125.0 mg/kg/injection, schedule: Q01DX001 (ip), vehicle: Klucel (hydroxypropylcellulose) (HPC)): 88 % of control
T/C (endpoint: median tumor weight change, dose: 250.0 mg/kg/injection, schedule: Q01DX001 (ip), vehicle: Klucel (hydroxypropylcellulose) (HPC)): 118 % of control
T/C (endpoint: median tumor weight change, dose: 500.0 mg/kg/injection, schedule: Q01DX001 (ip), vehicle: Klucel (hydroxypropylcellulose) (HPC)): 97 % of control
T/C (endpoint: median tumor weight change, dose: 1000.0 mg/kg/injection, schedule: Q01DX001 (ip), vehicle: Klucel (hydroxypropylcellulose) (HPC)): 60 % of control

C/C=C/c1cc2c(c(=O)o1)C(=O)[C@@H](O)[C@H](C)O2
T/C [2]: 89 % of control
T/C [3]: 87 % of control
T/C (endpoint: median tumor weight (est.), dose: 50.0 mg/kg/injection, schedule: Q07DX005 (ip), vehicle: saline with Tween-80): 102 % of control
T/C [4]: 77 % of control
T/C [5]: 82 % of control

CCCNC1=C(C)C(=O)C2=C(C1=O)[C@H](COC(N)=O)[C@]1(OC)[C@@H]3N[C@@H]3CN21
T/C (endpoint: median tumor weight change, dose: 3.75 mg/kg/injection, schedule: Q01DX001 (ip), vehicle: saline): 7 % of control
T/C (endpoint: median tumor weight change, dose: 7.5 mg/kg/injection, schedule: Q01DX001 (ip), vehicle: saline): 13 % of control
T/C (endpoint: median tumor weight change, dose: 15.0 mg/kg/injection, schedule: Q01DX001 (ip), vehicle: saline): -66 % of control

CO[C@H](C(=O)[C@@H](O)[C@@H](C)O)[C@@H]1Cc2cc3cc(OC4CC(OC5CC(O)C(O)C(C)O5)C(O)C(C)O4)c(C)c(O)c3c(O)c2C(=O)[C@H]1OC1CC(OC2CC(OC3CC(C)(O)C(O)C(C)O3)C(O)C(C)O2)C(O)C(C)O1 (stereo partly specified)
T/C (endpoint: median tumor weight (est.), dose: 0.25 mg/kg/injection, schedule: Q07DX006 (ip), vehicle: saline): 76 % of control
T/C (endpoint: median tumor weight (est.), dose: 0.5 mg/kg/injection, schedule: Q07DX006 (ip), vehicle: saline): 104 % of control
T/C (endpoint: median tumor weight (est.), dose: 1.0 mg/kg/injection, schedule: Q07DX006 (ip), vehicle: saline): 78 % of control

C=C(C)[C@]12CC(C)C34OC(/C=C\C=C\CCCCCCCCC)(O[C@@H]1[C@@H]3[C@@H]1O[C@]1(CO)[C@@H](O)[C@]1(O)C(=O)C(C)=C[C@@H]41)O2 (stereo partly specified)
T/C (endpoint: median tumor weight (est.), dose: 0.37 mg/kg/injection, schedule: Q07DX002 (ip), vehicle: saline + alcohol): 110 % of control
T/C (endpoint: median tumor weight (est.), dose: 0.37 mg/kg/injection, schedule: Q07DX005 (ip), vehicle: saline + alcohol): 82 % of control
T/C (endpoint: median tumor weight (est.), dose: 0.75 mg/kg/injection, schedule: Q07DX002 (ip), vehicle: saline + alcohol): 121 % of control
T/C (endpoint: median tumor weight (est.), dose: 0.75 mg/kg/injection, schedule: Q07DX005 (ip), vehicle: saline + alcohol): 116 % of control
T/C (endpoint: median tumor weight (est.), dose: 1.5 mg/kg/injection, schedule: Q07DX002 (ip), vehicle: saline + alcohol): 201 % of control
T/C (endpoint: median tumor weight (est.), dose: 1.5 mg/kg/injection, schedule: Q07DX005 (ip), vehicle: saline + alcohol): 72 % of control

N#C[C@H](OC1OC(COC2OC(CO)C(O)C(O)C2O)C(O)C(O)C1O)c1ccccc1 (stereo partly specified)
T/C (endpoint: median tumor weight (est.), dose: 50.0 mg/kg/injection, schedule: Q07DX005 (ip), vehicle: suspension in saline): 75 % of control
T/C [1]: 76 % of control
T/C (endpoint: median tumor weight (est.), dose: 100.0 mg/kg/injection, schedule: Q07DX005 (ip), vehicle: suspension in saline): 77 % of control
T/C (endpoint: median tumor weight (est.), dose: 200.0 mg/kg/injection, schedule: Q07DX005 (ip), vehicle: saline): 95 % of control
T/C (endpoint: median tumor weight (est.), dose: 200.0 mg/kg/injection, schedule: Q07DX005 (ip), vehicle: suspension in saline): 171 % of control
T/C (endpoint: median tumor weight (est.), dose: 400.0 mg/kg/injection, schedule: Q07DX005 (ip), vehicle: saline): 83 % of control
T/C (endpoint: median tumor weight (est.), dose: 400.0 mg/kg/injection, schedule: Q07DX005 (ip), vehicle: suspension in saline): 100 % of control
T/C (endpoint: median tumor weight (est.), dose: 800.0 mg/kg/injection, schedule: Q07DX005 (ip), vehicle: saline): 96 % of control
T/C (endpoint: median tumor weight (est.), dose: 1600.0 mg/kg/injection, schedule: Q07DX005 (ip), vehicle: saline): 41 % of control
T/C (endpoint: median tumor weight (est.), dose: 1600.0 mg/kg/injection, schedule: Q07DX005 (ip), vehicle: suspension in saline): 413 % of control

O=C(O)c1ccc(SSc2ccc(C(=O)O)cn2)nc1
T/C (endpoint: mean tumor weight, dose: 125.0 mg/kg/injection, schedule: Q07DX004 (ip), vehicle: saline): 123 % of control
T/C (endpoint: mean tumor weight, dose: 250.0 mg/kg/injection, schedule: Q07DX004 (ip), vehicle: saline): 102 % of control
T/C (endpoint: mean tumor weight, dose: 500.0 mg/kg/injection, schedule: Q07DX007 (ip), vehicle: saline): 99 % of control

S=c1[nH]cc2cnccn12
T/C [2]: 92 % of control
T/C [3]: 105 % of control
T/C [4]: 85 % of control
T/C [5]: 56 % of control

COC1(OC)C2C=CC1CC2
T/C (endpoint: median tumor weight change, dose: 62.5 mg/kg/injection, schedule: Q01DX001 (ip), vehicle: saline with Tween-80): 94 % of control
T/C [6]: 82 % of control
T/C [7]: 107 % of control
T/C [8]: 58 % of control

CC1(C)OC1CS(=O)c1ccccc1 (stereo unspecified)
T/C [6]: 160 % of control
T/C [7]: 83 % of control and 92 % of control
T/C [8]: 72 % of control and 94 % of control
